Patent US12473304B2, “Heterocyclic PAD4 inhibitors” (BRISTOL-MYERS SQUIBB COMPANY, priority 2020, dated 2025)

Biological target: human PAD4 (hPAD4) (Homo sapiens (Human), UniProt Q9UM07)
Experiment: RFMS Human PAD4 Functional Assay 1
Assay type: biochemical
Settings: RFMS assay 1; 5 nM hPAD4, 250 μM BAEE substrate, 50 μM calcium, 37° C.
Procedure: RFMS Human PAD4 Functional Assay 1:
Compounds were solubilized in 100% DMSO to achieve all) mM compound concentration. Compound stock solutions were stored at RT. A series of dilutions were prepared in DMSO and mixed 8 times with 20 μL mixing volume. Final top concentration of compound in the assay is 50 μM. Final assay conditions were as follows: • Reaction volume: 26 μl • Assay buffer: 25 mM hepes, pH 7.5, 5 mM NaCl, 1 mM DTT, 0.2 mg/ml BSA, 0.01% CHAPS, 50 μM Calcium, and 5 μM TPEN • Final concentrations: 5 nM hPAD4 enzyme, 250 μM BASE, and 0.5% DMSO • Total incubation time: 30 mins compound and enzyme preincubation at 37° C., 90 min enzyme/substrate reaction, 30 min reaction with phenyl glyoxal at 37° C. • Stop solution: 40 μl 5% TCA in ACN
0.13 μL of compound solution was added to 13 μL of 10 nM PAD4 in assay buffer. After 30 min 13 μl of 500 μM of BAEE was added in 25 mM hepes, pH 7.5, 5 mM NaCl, 1 mM DTT, 0.2 mg/ml BSA, 0.01% CHAPS, 50 μM Calcium, 5 μM TPEN was added and the reaction incubated for 90 min at 37° C. The enzymatic reaction was quenched by addition of 15 μl of 6.1N TCA, 100% Final Concentration is 20%, 35 μl of 8.5 mM phenyl glyoxal (final concentration 4 mM) is then added and the reaction is incubated for 30 min at 37° C.
After 30 minutes the plates are spun down to remove all precipitate. The enzyme reaction was quenched with an equal volume of methanol containing internal standard (modified citrulline). Samples were loaded onto the Rapid Fire RF300 system (Agilent) wherein they were first sipped for 1000 ms and then directly loaded to a C18 separations cartridge using a mixture of acetonitrile containing 0.01% formic acid for 3000 ms desalting. The flow rate of the mobile phase was 1.5 ml/min. Once the samples were eluted from the cartridge, a mobile phase of acetonitrile containing 0.01% formic acid was used to move the samples into the mass spectrometer for 4000 ms at a flow rate of 1.25 ml/min/Sciex API5500 triple quadrupole mass spectrometer (Applied Biosystems) equipped with ESI was used to analyze the peptidyl citrulline and internal standard ions.
MRM transition of product and internal standard were monitored at m/z 424.5 to 350.4 and m/z 293 to 247 respectively. The dwell time for each transition was set at 200 ms, and the ESI voltage was used at 5500 with a source temperature of 400° C. Extracted ion peaks for each transition were integrated using the Rapid Fire Integrator software. Peak area of analyte was normalized with internal standard.).

Chain of human PAD4 (hPAD4) (Q9UM07 whole entry): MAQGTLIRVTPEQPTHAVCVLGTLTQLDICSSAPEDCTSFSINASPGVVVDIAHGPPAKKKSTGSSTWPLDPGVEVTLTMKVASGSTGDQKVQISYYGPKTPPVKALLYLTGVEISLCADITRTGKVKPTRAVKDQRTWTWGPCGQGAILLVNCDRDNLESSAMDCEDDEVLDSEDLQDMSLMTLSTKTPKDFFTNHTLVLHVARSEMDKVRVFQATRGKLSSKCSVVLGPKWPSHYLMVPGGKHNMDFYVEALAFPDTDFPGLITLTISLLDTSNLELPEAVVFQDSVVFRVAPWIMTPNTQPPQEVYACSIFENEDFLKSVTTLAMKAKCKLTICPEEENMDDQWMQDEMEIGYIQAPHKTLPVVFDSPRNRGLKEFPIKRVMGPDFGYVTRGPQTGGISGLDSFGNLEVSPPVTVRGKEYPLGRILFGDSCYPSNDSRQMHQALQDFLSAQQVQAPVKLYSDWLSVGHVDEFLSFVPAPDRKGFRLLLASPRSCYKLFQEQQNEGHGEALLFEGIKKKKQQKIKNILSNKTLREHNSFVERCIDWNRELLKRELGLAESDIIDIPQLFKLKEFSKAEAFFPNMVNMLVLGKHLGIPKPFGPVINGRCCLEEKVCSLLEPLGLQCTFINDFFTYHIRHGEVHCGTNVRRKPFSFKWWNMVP

Structure (SMILES)	IC50 [nM]
Cc1c(-c2cc3cc(F)cc(C4CCN(C(=O)C5CCCO5)CC4)c3n2CC2CC2)nn2cc(C(=O)N3C[C@H](N)C[C@@H](F)C3)ccc12 (single isomer, unassigned) [Example 491]	1310
COc1cc(C(=O)N2CCC[C@@H](N)C2)cn2nc(-c3cc4cccc(OCC5CC(=O)N(C)C5)c4n3CC3CC3)c(C)c12 (single isomer, unassigned) [Example 552]	100
COc1cc(C(=O)N2C[C@H](N)C[C@@H](F)C2)cn2nc(-c3cc4cccc(OCC5CC(=O)N(C)C5)c4n3CC3CC3)c(C)c12 (single isomer, unassigned) [Example 554]	60
COc1cc(C(=O)N2C[C@H](N)C[C@@H](F)C2)cn2nc(-c3cc4cccc(OCC5CNC(=O)C5)c4n3CC3CC3)c(C)c12 (single isomer, unassigned) [Example 563]	70
COc1cc(C(=O)N2CCC[C@@H](N)C2)cn2nc(-c3cc4cccc(OCC5CNC(=O)C5)c4n3CC3CC3)c(C)c12 (single isomer, unassigned) [Example 564]	40
COc1cc(C(=O)N2C[C@H](N)C[C@@H](F)C2)cn2nc(-c3cc4cccc(OCC5CNC(=O)C5)c4n3CC3CC3)c(C)c12 (single isomer, unassigned) [Example 565]	20
Cc1c(-c2cc3cccc(OCC4CNC(=O)C4)c3n2CC2CC2)nn2cc(C(=O)N3C[C@H](N)C[C@@H](F)C3)cc(F)c12 (single isomer, unassigned) [Example 572]	80
Cc1c(-c2cc3cccc(OCC4CNC(=O)C4)c3n2CC2CC2)nn2cc(C(=O)N3C[C@H](N)C[C@@H](F)C3)ccc12 (single isomer, unassigned) [Example 573]	110
Cc1c(-c2cc3cccc(OCC4CC(=O)N(C)C4)c3n2CC2CC2)nn2cc(C(=O)N3CCC[C@@H](N)C3)ccc12 (single isomer, unassigned) [Example 576]	190
Cc1c(-c2cc3cccc(OCC4CC(=O)N(C)C4)c3n2CC2CC2)nn2cc(C(=O)N3C[C@H](N)C[C@@H](F)C3)ccc12 (single isomer, unassigned) [Example 579]	240
Cc1c(-c2cc3cccc(OCC4CNC(=O)C4)c3n2CC2CC2)nn2cc(C(=O)N3CCC[C@@H](N)C3)ccc12 (single isomer, unassigned) [Example 588]	230
Cc1c(-c2cc3cccc(OCC4CNC(=O)C4)c3n2CC2CC2)nn2cc(C(=O)N3CCC[C@@H](N)C3)ccc12 (single isomer, unassigned) [Example 589]	60
Cc1c(-c2cc3cccc(OCC4CNC(=O)C4)c3n2CC2CC2)nn2cc(C(=O)N3C[C@H](N)C[C@@H](F)C3)ccc12 (single isomer, unassigned) [Example 590]	30
COc1cc(C(=O)N2CCC[C@@H](N)C2)cn2nc(-c3cc4ccnc(OCC5CNC(=O)C5)c4n3CC3CC3)c(C)c12 (single isomer, unassigned; isomer 1) [Example 591]	30
COc1cc(C(=O)N2C[C@H](N)C[C@@H](F)C2)cn2nc(-c3cc4ccnc(OCC5CNC(=O)C5)c4n3CC3CC3)c(C)c12 (single isomer, unassigned; isomer 1) [Example 601]	30
Cc1c(-c2cc3ccnc(OCC4CNC(=O)C4)c3n2CC2CC2)nn2cc(C(=O)N3C[C@H](N)C[C@@H](F)C3)ccc12 (single isomer, unassigned; isomer 1) [Example 614]	60
COc1cc(C(=O)N2C[C@H](N)C[C@@H](F)C2)cn2nc(-c3cc4ccnc(OCC5CNC(=O)C5)c4n3CC3CC3)c(C)c12 (single isomer, unassigned; isomer 2) [Example 602]	30
COc1cc(C(=O)N2CC3CCC2[C@H]3N)cn2nc(-c3cc4ccnc(OC[C@H]5CCC(=O)N5)c4n3CC3CC3)c(C)c12 (stereo in doubt) [Example 607, (5R)-5-(((2-(6-((7S)-7-Amino-2-azabicyclo[2.2.1]heptane-2-carbonyl)-4-methoxy-3-methylpyrazolo[1,5-a]pyridin-2-yl)-1-(cyclopropylmethyl)-1H-pyrrolo[2,3-c]pyridin-7-yl)oxy)methyl)pyrrolidin-2-one]	50

The remaining compounds from weak to strong by IC50, led by results:

IC50 [nM]	Structure (SMILES)
380	COc1cc(C(=O)N2CC3CCC2[C@@H]3N)cn2nc(-c3cc4ccc(Cl)nc4n3CC3CC3)c(C)c12 (stereo partly drawn) [Example 2, ((7R)-7-Amino-2-azabicyclo[2.2.1]heptan-2-yl)(2-(6-chloro-1-(cyclopropylmethyl)-1H-pyrrolo[2,3-b]pyridin-2-yl)-4-methoxy-3-methylpyrazolo[1,5-a]pyridin-6-yl)methanone]
280	COc1cc(C(=O)N2CC3CCC2[C@@H]3N)cn2nc(-c3cc4cccnc4n3CC3CC3)c(C)c12 (stereo partly drawn) [Example 1, ((7R)-7-Amino-2-azabicyclo[2.2.1]heptan-2-yl)(2-(1-(cyclopropylmethyl)-1H-pyrrolo[2,3-b]pyridin-2-yl)-4-methoxy-3-methylpyrazolo[1,5-a]pyridin-6-yl)methanone]
190	Cc1c(-c2cc3cccc(OCC4CC(=O)N(C)C4)c3n2CC2CC2)nn2cc(C(=O)N3CCC[C@@H](N)C3)ccc12 (single isomer, unassigned) [Example 578]
160	COc1cc(C(=O)N2CCC[C@@H](N)C2)cn2nc(-c3cc4cccc(OCC5CC(=O)N(C)C5)c4n3CC3CC3)c(C)c12 (single isomer, unassigned) [Example 551]
150	Cc1c(-c2cc3cc(F)cc(C4CCN(C(=O)C5CCCO5)CC4)c3n2CC2CC2)nn2cc(C(=O)N3C[C@H](N)C[C@@H](F)C3)ccc12 (single isomer, unassigned) [Example 490]
150	Cc1c(-c2cc3cccc(OCC4CC(=O)N(C)C4)c3n2CC2CC2)nn2cc(C(=O)N3C[C@H](N)C[C@@H](F)C3)ccc12 (single isomer, unassigned) [Example 577]
140	COc1cc(C(=O)N2CCC[C@@H](N)C2)cn2nc(-c3cc4cccc(OCC5CNC(=O)C5)c4n3CC3CC3)c(C)c12 (single isomer, unassigned) [Example 562]
100	COc1cc(C(=O)N2CCC[C@@H](N)C2)cn2nc(-c3cc4ccnc(OCC5CNC(=O)C5)c4n3CC3CC3)c(C)c12 (single isomer, unassigned; isomer 2) [Example 603]
90	COc1cc(C(=O)N2C[C@H](N)C[C@@H](F)C2)cn2nc(-c3cc4cccc(OCC5CC(=O)N(C)C5)c4n3CC3CC3)c(C)c12 (single isomer, unassigned) [Example 553]
70	Cc1c(-c2cc3cc(F)cc(C4CCN(C(=O)C5CCCO5)CC4)c3n2CC2CC2)nn2cc(C(=O)N3CCC[C@@H](N)C3)ccc12 (single isomer, unassigned) [Example 489]
70	COc1cc(C(=O)N2CC3CCC2[C@@H]3N)cn2nc(-c3cc4ccnc(OCC5CNC(=O)C5)c4n3CC3CC3)c(C)c12 (single isomer, unassigned; isomer 1) [Example 605]
70	Cc1c(-c2cc3ccnc(OCC4CNC(=O)C4)c3n2CC2CC2)nn2cc(C(=O)N3C[C@H](N)C[C@@H](F)C3)ccc12 (single isomer, unassigned; isomer 2) [Example 615]
50	Cc1c(-c2cc3ccnc(OCC4CNC(=O)C4)c3n2CC2CC2)nn2cc(C(=O)N3CCC[C@@H](N)C3)ccc12 (single isomer, unassigned; isomer 1) [Example 618]
50	COc1cc(C(=O)N2CC3CCC2[C@@H]3N)cn2nc(-c3cc4ccnc(OCC5CNC(=O)C5)c4n3CC3CC3)c(C)c12 (single isomer, unassigned; isomer 2) [Example 606]
40	Cc1c(-c2cc3ccnc(OCC4CNC(=O)C4)c3n2CC2CC2)nn2cc(C(=O)N3CCC[C@@H](N)C3)ccc12 (single isomer, unassigned; isomer 2) [Example 619]
30	Cc1c(-c2cc3cccc(OCC4CNC(=O)C4)c3n2CC2CC2)nn2cc(C(=O)N3CCC[C@@H](N)C3)cc(F)c12 (single isomer, unassigned) [Example 571]
20	Cc1c(-c2cc3cccc(OCC4CNC(=O)C4)c3n2CC2CC2)nn2cc(C(=O)N3C[C@H](N)C[C@@H](F)C3)cc(F)c12 (single isomer, unassigned) [Example 567]
10	Cc1c(-c2cc3cccc(OCC4CNC(=O)C4)c3n2CC2CC2)nn2cc(C(=O)N3CCC[C@@H](N)C3)cc(F)c12 (single isomer, unassigned) [Example 566]
